Consider three compounds from paper PMC6272295, “In Vitro Neuroprotective Activities of Compounds from Angelica shikokiana Makino” (Molecules, 2015).

Experiment [1] has as its system intracellular ROS in Neuro-2A cells. The experiment can be described thus: Scavenging of intracellular reactive oxygen species (Bes-H2O2-AC, DFF fluorescence). For Intracellular ROS Scavenging: key: +: Weak activity; ++: Strong activity. Format: cell-based, Mouse. The settings on record: for decrease of DFF fluorescence intensity (intracellular ROS): only at the higher concentration of 100 µM, H2O2 600 µM 30 min; for Intracellular ROS Scavenging: summary Table 4. Here is the method:
Neuro-2A cell line was maintained in Eagle’s Minimum Essential medium supplemented with 10% fetal bovine serum, 1% of 100× antibiotic—antimitotic agents (containing penicillin and streptomycin) in a humid atmosphere of 5% (v/v) CO2 and 95% (v/v) air at 37 °C. Neuro-2A cells were plated in 96-well cell culture plates at a density of 3 × 10^4 cells/well for H2O2 and intracellular ROS assays and 2.5 × 10^3 cells/well for the Aβ25-35-assay.
This assay was performed as previously described with some modifications. Briefly, Neuro-2A cells were seeded in 96-well Clear Fluorescence Black Plate (number 655090, Greiner Bio-one, Tokyo, Japan). Cells were treated with three different concentrations (25, 50, 100 µM) of the samples. After 2 h incubation, cells were subjected to oxidative stress using 600 µM of H2O2 for 30 min. The nucleus was stained by Hoechst 33342 (Dojindo, Kumamoto, Japan), and the amount of difluorofluorescein (DFF) released from the reaction of H2O2 and BES-H2O2-Ac was taken as an indication of the amount of intracellular H2O2 and ROS. Images of each well were acquired using an IN Cell Analyzer 1000 (GE Healthcare, Buckinghamshire, UK) using 360-nm (Hoechst 33342) and 480-nm (BES-H2O2-Ac) excitation filters and monitored through 460-nm and 535-nm emission filters, respectively. Developer software was used to analyze the images of Hoechst 33342 and BES-H2O2-Ac staining, and the resulting data were then applied to Spotfire Decision Site Client 8.2 software for visualizing the results.

For experiment [2], the target named is T1, Aβ25-35 (Homo sapiens, UniProt P05067).
T1 construct: Aβ25-35 (25 µM) freshly prepared in PBS; purchased Sigma (St. Louis, MO, USA)
As to the kind of experiment: Thioflavin T assay of Aβ25-35 aggregation. For Decrease of ThT Fluorescence: key: +: Weak activity; ++: Strong activity. Format: biochemical. The settings on record: for effect on Th-T fluorescence (in words): 25-100 µM; for Decrease of ThT Fluorescence: summary Table 4. The procedure: Thioflavin T (ThT), abenzothiazole salt, is used to quantify misfolded protein aggregates and amyloid peptides. ThT is a non-fluorescent dye which, when it binds to amyloid rich aggregates, produces a fluorescent signal proportional to the quantity of amyloid aggregation. Aβ25-35 (25 µM) freshly prepared in PBS (50 mM, pH = 7.4) was incubated at 37 °C with or without different concentrations (100, 50, 25 µM) of isolated compounds at 37 °C and shaken at 300 rpm for 3 h. One hundred µL of each incubated sample was transferred to a 96-well plate, and five µM ThT was added. The ThT fluorescence was measured over 180 min at 10-min intervals at emission λ at 485 nm; and excitation λ at 442 nm using FlexStation 3 Microplate Reader (Molecular Devices, LLC, Sunnyvale, CA, USA), and data were managed by SoftMax Pro® 5.4.1 software. The samples were constantly shaken every 60 sec during the incubation. 1% DMSO and different concentrations of ECCG were taken as negative and positive controls, respectively. The area under the curve (AUC) was taken as indicative of fluorescence intensity. Fluorescence of samples and ThT without Aβ25-35 (sample blank) was detected and subtracted from the final AUC to prevent any interference.

Turning to `CC(=O)OC1c2c(ccc3ccc(=O)oc23)OC(C)(C)C1OC(=O)C(C)(O)C(C)O` (centres unmarked) [Hyuganin E (6), hyuganin E], in experiment [1], the “decrease of DFF fluorescence intensity (intracellular ROS)” value is listed as “decrease the fluorescence intensity” and the “Intracellular ROS Scavenging” value is given as “+”. In experiment [2], the “effect on Th-T fluorescence (in words)” value is “decreased Th-T fluorescence in a dose-dependent manner” and the “Decrease of ThT Fluorescence” value is “++”.
Taken in the same sequence, the figures for `O=c1c(O)c(-c2ccc(O)cc2)oc2cc(O)cc(O)c12` [Kaempferol (8), kaempferol] were “decrease the fluorescence intensity”, “+”, “weak activity” and “+”.
Turning to `O=c1c(OC2OC(CO)C(O)C(O)C2O)c(-c2ccc(O)cc2)oc2cc(O)cc(O)c12` (centres unmarked) [Kaempferol-3-O-glucoside (13), kaempferol-3-O-glucoside], the “Intracellular ROS Scavenging” value in experiment [1] was “+”. In experiment [2], the “effect on Th-T fluorescence (in words)” value is “weak activity” and the “Decrease of ThT Fluorescence” value is reported as “+”.
